Results taken from US8569509B2, “Thiazole-4-carboxylic acid esters and thioesters as plant protection agents” (priority 2008, dated 2013).
Read-outs that look alike come from different tables or passages of the source.

Assay: log P determination (HPLC, calibration with unbranched alkan-2-ones)
Type: physicochemical
Procedure: The calibration is carried out using unbranched alkan-2-ones (having 3 to 16 carbon atoms) with known log P values (determination of the log P values by the retention times using linear interpolation between two successive alkanones). The lambda-maX values were determined in the maxima of the chromatographic signals using the UV spectra from 200 nm to 400 nm.

[1] = * LC-MS determination in the acidic range at pH 2.7, mobile phases 0.1% aqueous formic acid and acetonitrile (0.1% formic acid), linear gradient 10% to 95% acetonitrile, reversed-phase C 18 HPLC
[2] = * LC-MS determination in the acidic range at pH 2.7, 0.1% aqueous formic acid and acetonitrile, linear gradient 10% to 95% acetonitrile
[3] = pH 2.7, read-out: log P (pH 2.7)
[4] = pH 7.8, read-out: log P (pH 7.8)
[5] = * LC-MS determination in the acidic range, pH 2.7, 0.1% aqueous formic acid and acetonitrile, linear gradient 10% to 95% acetonitrile

CC=CC(CC)OC(=O)c1csc(C2CCN(C(=O)C(C)(C)n3nc(C)cc3C)CC2)n1 (mixture of isomers) [compound 799]
log p [1]: 3.78*

Cc1cc(C)n(C(C)(C)C(=O)N2CCC(c3nc(C(=O)OC(C)c4ccc(F)cc4)cs3)CC2)n1 (racemic) [compound 403]
log p [2]: 3.47*

Cc1c(Cl)c(C(F)(F)F)nn1C(C)C(=O)N1CCC(c2nc(C(=O)OC3CCCCC3)cs2)CC1 (racemic) [compound 769]
log p [2]: 4.58*

Cc1c(Cl)c(C(F)(F)F)nn1C(C)C(=O)N1CCC(c2nc(C(=O)Oc3cccc4ccccc34)cs2)CC1 (racemic) [compound 770]
log p [1]: 4.50*

O=C(O)c1csc(C2CCN(C(=O)Cn3nc(C(F)F)cc3C(F)F)CC2)n1 [III-1, 2-(1-{[3,5-Bis(difluoromethyl)-1H-pyrazol-1-yl]acetyl}piperidin-4-yl)-1,3-thiazole-4-carboxylic acid]
chromatographic logP [3]: 1.71

O=C(O)c1csc(C2CCN(C(=O)Cn3ccc(C(F)(F)F)n3)CC2)n1 [III-2, 2-(1-{[3-(Trifluoromethyl)-1H-pyrazol-1-yl]acetyl}piperidin-4-yl)-1,3-thiazole-4-carboxylic acid]
chromatographic logP [3]: 1.65

Cc1cc(C(F)(F)F)nn1CC(=O)N1CCCC(c2nc(C(=O)O)cs2)C1 (stereo not shown) [III-3, 2-(1-{[5-Methyl-3-(trifluoromethyl)-1H-pyrazol-1-yl]acetyl}piperidin-3-yl)-1,3-thiazole-4-carboxylic acid]
chromatographic logP [3]: 1.9

Cc1cc(C(F)(F)F)nn1CC(=O)N1CCC(c2nc(C(=O)O)cs2)CC1 [III-4, 2-(1-{[5-Methyl-3-(trifluoromethyl)-1H-pyrazol-1-yl]acetyl}piperidin-4-yl)-1,3-thiazole-4-carboxylic acid]
chromatographic logP [3]: 1.82

Cc1c(Cl)c(C(F)(F)F)nn1CC(=O)N1CCC(c2nc(C(=O)O)cs2)CC1 [III-5, 2-(1-{[4-Chloro-5-methyl-3-(trifluoromethyl)-1H-pyrazol-1-yl]acetyl}piperidin-4-yl)-1,3-thiazole-4-carboxylic acid]
chromatographic logP [3]: 2.26

CCOC(=O)c1csc(C2CCN(C(=O)Cn3nc(C(F)F)cc3C(F)F)CC2)n1 [IV-1, Ethyl 2-(1-{[3,5-bis(difluoromethyl)-1H-pyrazol-1-yl]acetyl}piperidin-4-yl)-1,3-thiazole-4-carboxylate]
chromatographic logP [3]: 2.52

CCOC(=O)c1csc(C2CCN(C(=O)Cn3ccc(C(F)(F)F)n3)CC2)n1 [IV-2, Ethyl 2-(1-{[3-(trifluoromethyl)-1H-pyrazol-1-yl]acetyl}piperidin-4-yl)-1,3-thiazole-4-carboxylate]
chromatographic logP [3]: 2.41

CCOC(=O)c1csc(C2CCCN(C(=O)Cn3nc(C(F)(F)F)cc3C)C2)n1 (stereo not shown) [IV-3, Ethyl 2-(1-{[5-methyl-3-(trifluoromethyl)-1H-pyrazol-1-yl]acetyl}piperidin-3-yl)-1,3-thiazole-4-carboxylate]
chromatographic logP [3]: 2.78

CCOC(=O)c1csc(C2CCN(C(=O)C(C)(C)n3nc(C)cc3C)CC2)n1 [IV-4, Ethyl 2-{1-[2-(3,5-dimethyl-1H-pyrazol-1-yl)-2-methylpropanoyl]piperidin-4-yl}-1,3-thiazole-4-carboxylate]
chromatographic logP [4]: 2.34

CCOC(=O)c1csc(C2CCN(C(=O)Cn3nc(C(F)(F)F)cc3C)CC2)n1 [IV-5, Ethyl 2-(1-{[5-methyl-3-(trifluoromethyl)-1H-pyrazol-1-yl]acetyl}piperidin-4-yl)-1,3-thiazole-4-carboxylate]
chromatographic logP [3]: 2.62

CCOC(=O)c1csc(C2CCN(C(=O)Cn3nc(C(F)(F)F)c(Cl)c3C)CC2)n1 [IV-6, Ethyl 2-(1-{[4-chloro-5-methyl-3-(trifluoromethyl)-1H-pyrazol-1-yl]acetyl}piperidin-4-yl)-1,3-thiazole-4-carboxylate]
chromatographic logP [3]: 3.17

CC(C)(C)OC(=O)N1CCC(c2nc(C(=O)Oc3cccc4ccccc34)cs2)CC1 [IX-2, tert-Butyl 4-{4-[(1-naphthyloxy)carbonyl]-1,3-thiazol-2-yl}piperidine-1-carboxylate]
chromatographic logP [3]: 4.5

CC(C)(C)c1cc(C(F)(F)F)n(CC(=O)O)n1 [V-1, [3-tert-Butyl-5-(trifluoromethyl)-1H-pyrazol-1-yl]acetic acid]
chromatographic logP [3]: 2.45

CC(C)(C)c1cc(C(F)(F)F)nn1CC(=O)O [V-2, [5-tert-Butyl-3-(trifluoromethyl)-1H-pyrazol-1-yl]acetic acid]
chromatographic logP [3]: 2.45

CC(C)(C)c1cc(C(F)(F)C(F)(F)F)n(CC(=O)O)n1 [V-3, [3-tert-Butyl-5-(pentafluoroethyl)-1H-pyrazol-1-yl]acetic acid]
chromatographic logP [3]: 2.92

CC(C)(C)c1cc(C(F)(F)C(F)(F)F)nn1CC(=O)O [V-4, [5-tert-Butyl-3-(pentafluoroethyl)-1H-pyrazol-1-yl]acetic acid]
chromatographic logP [3]: 2.75

CC(C)c1cc(C(F)(F)F)n(CC(=O)O)n1 [V-5, [3-Isopropyl-5-(trifluoromethyl)-1H-pyrazol-1-yl]acetic acid]
chromatographic logP [3]: 2.05

Cc1c(Cl)c(C(F)(F)F)nn1CC(=O)O [V-6, [4-Chloro-5-methyl-3-(trifluoromethyl)-1H-pyrazol-1-yl]acetic acid]
chromatographic logP [4]: 0.68

CCOC(=O)c1csc(C2CCNCC2)n1 [VI-1, 4-[4-(Ethoxycarbonyl)-1,3-thiazol-2-yl]piperidinium chloride]
chromatographic logP [3]: 0.42

CCOC(=O)c1csc(C2CCCNC2)n1 (stereo not shown) [VI-2, 3-[4-(Ethoxycarbonyl)-1,3-thiazol-2-yl]piperidinium chloride]
chromatographic logP [3]: 0.54

O=C(Oc1cccc2ccccc12)c1csc(C2CCNCC2)n1 [X-2, 4-{4-[(1-Naphthyloxy)carbonyl]-1,3-thiazol-2-yl}piperidinium chloride]
chromatographic logP [3]: 1.42

CCOC(=O)Cn1nc(C(C)(C)C)cc1C(F)(F)F [XVI-1, Ethyl [3-tert-butyl-5-(trifluoromethyl)-1H-pyrazol-1-yl]acetate]
chromatographic logP [3]: 3.89

CCOC(=O)Cn1nc(C(F)(F)F)cc1C(C)(C)C [XVI-2, Ethyl [5-tert-butyl-3-(trifluoromethyl)-1H-pyrazol-1-yl]acetate]
chromatographic logP [3]: 3.48

CCOC(=O)Cn1nc(C(C)(C)C)cc1C(F)(F)C(F)(F)F [XVI-3, Ethyl [3-tert-butyl-5-(pentafluoroethyl)-1H-pyrazol-1-yl]acetate]
chromatographic logP [3]: 4.45

CCOC(=O)Cn1nc(C(F)(F)C(F)(F)F)cc1C(C)(C)C [XVI-4, Ethyl [5-tert-butyl-3-(pentafluoroethyl)-1H-pyrazol-1-yl]acetate]
chromatographic logP [3]: 4.05

CCOC(=O)Cn1nc(C(C)C)cc1C(F)(F)F [XVI-5, Ethyl [3-isopropyl-5-(trifluoromethyl)-1H-pyrazol-1-yl]acetate]
chromatographic logP [3]: 3.22

CCOC(=O)Cn1nc(C(F)(F)F)c(Cl)c1C [XVI-6, Ethyl [4-chloro-5-methyl-3-(trifluoromethyl)-1H-pyrazol-1-yl]acetate]
chromatographic logP [3]: 3.11

CC(C)(C)c1cc(C(F)(F)C(F)(F)F)[nH]n1 [XVIII-1, 3-tert-Butyl-5-(pentafluoroethyl)-1H-pyrazole]
chromatographic logP [3]: 3.23

Cc1cc(C(F)(F)F)nn1CC(=O)N1CCC(c2nc(C(=O)OC3CCCC3)cs2)CC1 [compound 3]
log p [5]: 3.40*

Cc1cc(C(F)(F)F)nn1CC(=O)N1CCC(c2nc(C(=O)OC3CCc4ccccc43)cs2)CC1 (stereo not shown) [compound 8]
log p [5]: 3.76*

Cc1cc(C(F)(F)F)nn1CC(=O)N1CCC(c2nc(C(=O)Oc3ccc4ccccc4c3)cs2)CC1 [compound 10]
log p [5]: 3.84*

Cc1cc(C(F)(F)F)nn1CC(=O)N1CCC(c2nc(C(=O)OCc3ccc(F)cc3)cs2)CC1 [compound 12]
log p [5]: 3.35*

Cc1cc(C(F)(F)F)nn1CC(=O)N1CCC(c2nc(C(=O)OCc3ccccc3)cs2)CC1 [compound 15]
log p [5]: 3.37*

Cc1cc(C(F)(F)F)nn1CC(=O)N1CCC(c2nc(C(=O)OCc3ccc(Cl)cc3)cs2)CC1 [compound 17]
log p [5]: 3.73*

Cc1ccc(COC(=O)c2csc(C3CCN(C(=O)Cn4nc(C(F)(F)F)cc4C)CC3)n2)cc1 [compound 18]
log p [5]: 4.21*

COc1ccc(COC(=O)c2csc(C3CCN(C(=O)Cn4nc(C(F)(F)F)cc4C)CC3)n2)cc1 [compound 19]
log p [5]: 3.30*

Cc1cc(C(F)(F)F)nn1CC(=O)N1CCC(c2nc(C(=O)OCc3ccc(Cl)cc3Cl)cs2)CC1 [compound 20]
log p [5]: 3.69*

Cc1cc(C(F)(F)F)nn1CC(=O)N1CCC(c2nc(C(=O)OCc3cc(Cl)cc(Cl)c3)cs2)CC1 [compound 21]
log p [5]: 4.24*

Cc1cc(C(F)(F)F)nn1CC(=O)N1CCC(c2nc(C(=O)OCc3c(Cl)cccc3Cl)cs2)CC1 [compound 22]
log p [5]: 3.94*

Cc1cc(C(F)(F)F)nn1CC(=O)N1CCC(c2nc(C(=O)OCc3cccc(Cl)c3)cs2)CC1 [compound 24]
log p [5]: 3.72*

Cc1cc(C(F)(F)F)nn1CC(=O)N1CCC(c2nc(C(=O)OCc3cccc(C(F)(F)F)c3)cs2)CC1 [compound 25]
log p [5]: 3.81*

Cc1cc(C(F)(F)F)nn1CC(=O)N1CCC(c2nc(C(=O)SCc3ccc(F)cc3)cs2)CC1 [compound 27, S-(4-Fluorobenzyl) 2-(1-{[5-methyl-3-(trifluoromethyl)-1H-pyrazol-1-yl]acetyl}piperidin-4-yl)-1,3-thiazole-4-carbothioate]
chromatographic logP [3]: 4
chromatographic logP (reversed-phase (C18) HPLC column, * LC-MS determination in the acidic range, pH 2.7, 0.1% aqueous formic acid and acetonitrile, linear gradient 10% to 95% acetonitrile, read-out: log p): 4

Cc1cc(C(F)(F)F)nn1CC(=O)N1CCC(c2nc(C(=O)OCc3ccc([N+](=O)[O-])cc3)cs2)CC1 [compound 28]
log p [5]: 3.22*

Cc1cc(C(F)(F)F)nn1CC(=O)N1CCC(c2nc(C(=O)OCc3ccc(C(C)(C)C)cc3)cs2)CC1 [compound 29]
log p [5]: 4.57*
